In ChEMBL document CHEMBL1146589, “Potential cncer chemopreventive flavonoids from the stems of Tephrosia toxicaria” (J Nat Prod, 2003):

Experiments:
[1] = Inhibition of 7,12-dimethylbenz[a]anthracene-induced preneoplastic lesions in a mouse mammary gland culture at 10 ug/mL; type: functional
[2] = Inhibition of mouse Hepa-1c1c7 cells by MTT assay; type: cell-based
[3] = Chemoprevention index, ratio of IC50 for mouse Hepa-1c1c7 cells to drug level required to double NADPH:quinone reductase activity in mouse Hepa-1c1c7 cells; type: functional
tissue or blood = settings: Mus musculus, Mammary gland, read-out: INH
Description: Inhibition of 7,12-dimethylbenz[a]anthracene-induced preneoplastic lesions in a mouse mammary gland culture at 1 ug/mL

Structure (SMILES) | inhibition at 10 µg/mL [1] [%] | IC50 [2] [µM] | Ratio [3] | inhibition at 1 µg/mL (tissue or blood) [%]
COc1cc2c(cc1OC)-c1c(oc3c4c(cc(O)c3c1=O)OC(C)(C)C=C4)CO2 | 19 | > 47 |  | 
COc1cc2c(cc1OC)[C@]1(O)C(=O)c3c(O)cc4c(c3O[C@@H]1CO2)C=CC(C)(C)O4 | 60 | > 47 |  | 
COc1cc(O)c2c(c1/C=C/C(C)=O)O[C@H](c1ccccc1)CC2=O | 0 | > 14.9 | >1.4 | 
COc1cc2c(cc1OC)[C@]1(O)C(=O)c3c(O)cc4c(c3O[C@@H]1CO2)C(OC)C(O)C(C)(C)O4 (stereo partly drawn) |  | 9.1 | 1.4 | 
COc1cc(-c2cc(=O)c3c(O)cc(O)cc3o2)ccc1O [CHRYSOERIOL] |  | 36 | 3.1 | 
O=c1c(-c2ccc(O)cc2)coc2cc(O)cc(O)c12 [GENISTEIN] |  | 45.2 | 2 | 
O=C(/C=C/c1ccc(O)cc1)c1ccc(O)cc1O [ISOLIQUIRITIGENIN] | 76 | 36.3 | 10.1 | 
C[S+]([O-])CCCCN=C=S (stereo not drawn) [SULFORAPHANE] |  | 11 | 25 | 83.7
C=C(C)[C@H]1Cc2c(cc(O)c3c2O[C@@H]2COc4cc(OC)c(OC)cc4[C@@H]2C3=O)O1 [SUMATROL] | 49.9 | > 47 |  | 
COc1cc2c(cc1OC)[C@@H]1C(=O)c3c(O)cc4c(c3O[C@@H]1CO2)C=CC(C)(C)O4 [TOXICAROL] | 80 | > 47 |  | 
